Data set [1] has as its system Hartley guinea pigs. Put plainly: Lowering effect on plasma cholesterol by use in combination of Compound X and atorvastatin (Example 2). It is filed as in vivo, guinea pig. The conditions noted are these: guinea pigs on 0.05% cholesterol/10% corn oil diet, orally once a day 14 days, average ± standard error (N = 12).
Data set [2] concerns Hartley guinea pigs. Kind of data set: Influence of Compound X and atorvastatin on liver pathological change (Example 4). The conditions noted are these: for Total cholesterol: guinea pigs on 0.05% cholesterol/10% corn oil diet, 30 mg/kg alone, orally once a day 14 days, average ± standard error (N = 12). Format: in vivo, guinea pig. How it is done: Furthermore, the liver was removed and pathological evaluation was conducted.

Data set [3] concerns Hartley guinea pigs. The following applies: plasma, atorvastatin 50 mg/kg alone, orally once a day 7 days, average ± standard error (N = 12).
Description: On the morning of the following day after the 7th administration, blood was collected, and the concentrations of the alanine aminotransferase and the aspartate aminotransferase, which are the markers of hepatic toxicity, in plasma were measured.
For data set [4], the system named is Hartley guinea pigs. Put plainly: Influence of Compound X and cerivastatin on change of muscle-deviated enzymes (Example 6). Format: in vivo, guinea pig. The following applies: for increases in the creatinine phosphokinase and myoglobin in plasma: cerivastatin 1 mg/kg alone or with Compound X 30 mg/kg.
For data set [5], the system named is Hartley guinea pigs. Kind of data set: Lowering effect on plasma cholesterol by triple combination of Compound X, simvastatin and ezetimibe (Example 7). It is filed as in vivo, guinea pig. The following applies: guinea pigs on 0.05% cholesterol/10% corn oil diet, Compound X 30 mg/kg alone, orally once a day 14 days; average ± standard error (N = 6).
For another data set, the system named is Wistar Fatty rats. Put plainly: Lowering effect on plasma triglyceride by use in combination of Compound X and atorvastatin (Example 1). It is filed as in vivo, rat. The following applies: 30 mg/kg alone, orally once a day for 8 days, overnight fasting, average ± standard error (N = 6).
Data set [6] has as its system Hartley guinea pigs. Kind of data set: Lowering effects on plasma cholesterol by use in combination of Compound X and simvastatin (Example 3). It is filed as in vivo, guinea pig. The conditions noted are these: guinea pigs on 0.05% cholesterol/10% corn oil diet, orally once a day 14 days, average ± standard error (N = 12).
[7] abbreviates: plasma, cerivastatin 1 mg/kg alone, orally once a day 14 days, average ± standard error (N = 16).

The record followed here is patent publication US20090209510A1, “Novel Method of Treating Hyperlipidemia” (TAKEDA PHARMACEUTICAL COMPANY LIMITED, priority 2005, published 2009).

Regarding `CC(C)c1c(C(=O)Nc2ccccc2)c(-c2ccccc2)c(-c2ccc(F)cc2)n1CC[C@@H](O)C[C@@H](O)CC(=O)O` [Atorvastatin, atorvastatin], the values for the Total cholesterol level with Hartley guinea pigs [1] (3 mg/kg alone), in the data set with Hartley guinea pigs [1] (10 mg/kg alone) and in the data set with Hartley guinea pigs [1] (30 mg/kg alone) were 46.1 ± 3.3 mg/dL, 37.4 ± 4.1 mg/dL and 33.5 ± 2.8 mg/dL, respectively. Besides, in the data set with Hartley guinea pigs [2], the Total cholesterol is 32.9 ± 1.5 mg/dL. The compound further returned an Alanine aminotransferase in the data set on Hartley guinea pigs [3] of 48.9 ± 9.7 I.U./L. Further, the Aspartate aminotransferase in the data set with Hartley guinea pigs [3] is given as 169.0 ± 39.1 I.U./L.
Take `COCc1c(C(C)C)nc(C(C)C)c(/C=C/[C@@H](O)C[C@@H](O)CC(=O)O)c1-c1ccc(F)cc1` [Cerivastatin, cerivastatin]: the “increases in the creatinine phosphokinase and myoglobin in plasma” value with Hartley guinea pigs [4] (14 days) is recorded as “Significant increases”. In the data set with Hartley guinea pigs [4] (cerivastatin 1 mg/kg alone, orally once a day 14 days, average ± standard error (N = 16)), the TC is 13.2 ± 0.8 mg/dL. In addition, in the data set on Hartley guinea pigs [4] (setting [7]), the CK (creatinine phosphokinase) turned out to be 4070 ± 800 U/L and the “Mb (myoglobin)” value was 25.7 ± 2.6 ng/mL.
Regarding `COc1cccc([C@H]2O[C@H](CC(=O)N3CCC(CC(=O)O)CC3)C(=O)N(CC(C)(C)COC(C)=O)c3ccc(Cl)cc32)c1OC` [Compound X, N-[[(3R,5S)-1-(3-acetoxy-2,2-dimethylpropyl)-7-chloro-5-(2,3-dimethoxyphenyl)-2-oxo-1,2,3,5-tetrahydro-4,1-benzoxazepin-3-yl]acetyl]piperidine-4-acetic acid], the Total cholesterol level is listed as 44.4 ± 4.1 mg/dL in the data set with Hartley guinea pigs [1] (30 mg/kg alone), 43.5 ± 4.1 mg/dL in the data set on Hartley guinea pigs [5] and 40.2 ± 4.7 mg/dL in the data set on Hartley guinea pigs [6] (30 mg/kg alone). The same compound yielded a Total cholesterol in the data set on Hartley guinea pigs [2] of 40.1 ± 3.1 mg/dL. Besides, the “Image of the liver cell necrosis” value with Hartley guinea pigs [2] (guinea pigs, each drug 30 mg/kg, alone or in combination, 14 days) is listed as “not recognized”. Moreover, the Plasma triglyceride value with Wistar Fatty rats turned out to be 376.5 ± 22.0 mg/dL. Moreover, in the data set with Hartley guinea pigs [4] (Compound X 30 mg/kg added to cerivastatin 1 mg/kg, 14 days), the cholesterol-lowering effect entry is on record as “slightly increasing”. Moreover, in the data set with Hartley guinea pigs [4] (14 days), the “increases in the creatinine phosphokinase and myoglobin in plasma” value is listed as “significantly ameliorated the increases”.
Turning to `CCC(C)(C)C(=O)O[C@H]1C[C@@H](C)C=C2C=C[C@H](C)[C@H](CC[C@@H]3C[C@@H](O)CC(=O)O3)[C@H]21` [Simvastatin, simvastatin], the results for the Total cholesterol level with Hartley guinea pigs [6] (10 mg/kg alone), in the data set with Hartley guinea pigs [6] (30 mg/kg alone) and in the data set with Hartley guinea pigs [6] (100 mg/kg alone) were 41.0 ± 3.6 mg/dL, 43.4 ± 2.2 mg/dL and 31.7 ± 2.6 mg/dL, respectively.
